From ChEMBL document CHEMBL4483862, “Open-source discovery of chemical leads for next-generation chemoprotective antimalarials” (2018)

System: Plasmodium berghei
Assay: Luciferase/luciferin-expressing antifolate-resistant parasites were used to infect a culture of HepG2 cells that were pre-incubated with compounds. Infected hepatocytes emit light due to the luciferase reaction. Assay results are presented as the percent inhibition of light emission compared to control. […]
Format: functional
Details: sporozoite; for IC90: read-out: LUCIFERASE INFECTION ASSAY - IC90
[1] = read-out: LUCIFERASE INFECTION ASSAY - IC50

SMILES | IC90 | IC50 [1] | further results
Cc1ccc(-c2nc(COC(=O)Cc3ccccc3[N+](=O)[O-])cs2)cc1 | > 10 µM |  | IC50 (HEPG2TOX_HILL_SLOPE 1.86, HEPG2TOX_R_SQUARED 0.968, PBLUC_HILL_SLOPE 3.1, PBLUC_R_SQUARED 0.491, read-out: LUCIFERASE INFECTION ASSAY - IC50): 6.23 µM
CCOc1cc(/C=C/C(=O)c2ccc(-c3ccccc3)cc2)ccc1OCC(=O)N(C)C | > 10 µM |  | IC50 (HEPG2TOX_HILL_SLOPE 0.976, HEPG2TOX_R_SQUARED 0.779, read-out: LUCIFERASE INFECTION ASSAY - IC50): > 10 µM
O=C(Nc1ccc(OC(F)(F)F)cc1)Nc1cc(-c2cccs2)n[nH]1 | > 8.96 µM | > 8.96 µM | 
O=C(Nc1ccccc1)Nc1ccc(Cl)c(Cl)c1 | 9.61 µM |  | IC50 (HEPG2TOX_HILL_SLOPE 12, HEPG2TOX_R_SQUARED 0.666, PBLUC_HILL_SLOPE 4.82, PBLUC_R_SQUARED 0.734, read-out: LUCIFERASE INFECTION ASSAY - IC50): 6.09 µM
O=C(CN1CCN(c2cccc(Cl)c2)CC1)Nc1nccs1 | > 9.8 µM | > 9.8 µM | 
NC(=NNC(=S)Nc1ccc(Cl)cc1)c1ccccn1 | > 10.8 µM |  | IC50 (FFLUC_HILL_SLOPE 4.43, FFLUC_R_SQUARED 0.823, PBLUC_HILL_SLOPE 0.754, PBLUC_R_SQUARED 0.703, read-out: LUCIFERASE INFECTION ASSAY - IC50): 1.71 µM
O=C(O)CNC(=O)/C=C/c1ccccc1 [CINNAMOYLGLYCINE] | > 10 µM | > 10 µM | 
CN(Cc1ccsc1)c1nc(C(F)(F)F)nc2ccccc12 | > 10 µM | > 10 µM | 
CC(C)c1ccc(C(=O)N2CCC(CCCC3CCN(C(=O)c4ccc(C(C)C)cc4)CC3)CC2)cc1 | > 10 µM |  | IC50 (HEPG2TOX_HILL_SLOPE 8.83, HEPG2TOX_R_SQUARED 0.537, read-out: LUCIFERASE INFECTION ASSAY - IC50): > 10 µM
Cc1cc(C(=O)C(C)OC(=O)c2ccc(S(=O)(=O)NCc3ccco3)cc2)c(C)n1-c1ccc(Cl)cc1 (stereo unspecified) | > 10 µM |  | IC50 (HEPG2TOX_HILL_SLOPE 0.938, HEPG2TOX_R_SQUARED 0.54, PBLUC_HILL_SLOPE 4.63, PBLUC_R_SQUARED 0.33, read-out: LUCIFERASE INFECTION ASSAY - IC50): 7.49 µM
Cc1ccc2nc(NC(=O)c3cc(F)ccc3F)c(C(=O)NCC(C)C)n2c1 | 3.13 µM |  | IC50 (HEPG2TOX_HILL_SLOPE 8.58, HEPG2TOX_R_SQUARED 0.935, PBLUC_HILL_SLOPE 15.1, PBLUC_R_SQUARED 0.738, read-out: LUCIFERASE INFECTION ASSAY - IC50): 2.71 µM
O=C(Nc1ccccc1)Nc1cccc(Cl)c1 | > 13.4 µM | > 13.4 µM | 
CC(C)(C)c1ccc(-c2ccc(OCCN3CCOCC3)nc2)cc1 | > 9.69 µM |  | IC50 (HEPG2TOX_HILL_SLOPE 2.33, HEPG2TOX_R_SQUARED 0.966, PBLUC_HILL_SLOPE 2.69, PBLUC_R_SQUARED 0.584, read-out: LUCIFERASE INFECTION ASSAY - IC50): 4.35 µM
COc1ccc(NS(=O)(=O)c2cc(NC(=O)c3cc(C4CC4)on3)ccc2N2CCCCC2)cc1 | > 10 µM |  | IC50 (FFLUC_HILL_SLOPE 8.45, FFLUC_R_SQUARED 0.551, read-out: LUCIFERASE INFECTION ASSAY - IC50): > 10 µM
CCOc1ccc(NCC(=O)c2ccc(-c3ccccc3)cc2)cc1 | > 10 µM |  | IC50 (PBLUC_HILL_SLOPE 16.8, 2.19, PBLUC_R_SQUARED 0.173, 0.582, read-out: LUCIFERASE INFECTION ASSAY - IC50): 8.7 µM
O=C1Nc2ccccc2SC1c1c(-c2ccc(Cl)cc2)cc2ccccn12 (stereo unspecified) | > 10 µM | > 10 µM | 
COC(=O)c1cc(C(=O)OC)cc(-n2c(C)cc(C(=O)Cn3ncc(Cl)c(Cl)c3=O)c2C)c1 | 4.48 µM |  | IC50 (FFLUC_HILL_SLOPE 11.1, FFLUC_R_SQUARED 0.501, HEPG2TOX_HILL_SLOPE 4.27, HEPG2TOX_R_SQUARED 0.789, PBLUC_HILL_SLOPE 11.5, PBLUC_R_SQUARED 0.682, read-out: LUCIFERASE INFECTION ASSAY - IC50): 3.7 µM
Cc1ccc(-c2nnc(SCC(=O)c3c(N)n(C)c(=O)n(C)c3=O)nc2-c2ccc(C)cc2)cc1 | > 10 µM |  | IC50 (FFLUC_HILL_SLOPE 1.03, FFLUC_R_SQUARED 0.511, read-out: LUCIFERASE INFECTION ASSAY - IC50): > 10 µM
O=C(C1=NNCC1c1ccccc1)c1ccc2ccccc2c1 (stereo unspecified) | > 11 µM |  | IC50 (HEPG2TOX_HILL_SLOPE 1.14, HEPG2TOX_R_SQUARED 0.985, PBLUC_HILL_SLOPE 1.79, PBLUC_R_SQUARED 0.146, read-out: LUCIFERASE INFECTION ASSAY - IC50): 5.28 µM
CC(Sc1nnc(-c2ccc(C(C)(C)C)cc2)n1Cc1ccco1)C(=O)Nc1ccc(Cl)cn1 (stereo unspecified) | > 10 µM | > 10 µM | 
Cc1cnc(NC(=O)c2ccc(CN3CCCCC3)cc2)s1 | > 10 µM |  | IC50 (FFLUC_HILL_SLOPE 0.622, FFLUC_R_SQUARED 0.84, HEPG2TOX_HILL_SLOPE 8.37, HEPG2TOX_R_SQUARED 0.336, PBLUC_HILL_SLOPE 1, PBLUC_R_SQUARED 0.657, read-out: LUCIFERASE INFECTION ASSAY - IC50): 1.28 µM
N#Cc1ccc(Cl)cc1NC(=O)CNc1cc(C(F)(F)F)ccc1N1CCCC1 | 4.15 µM |  | IC50 (PBLUC_HILL_SLOPE 5.67, PBLUC_R_SQUARED 0.48, read-out: LUCIFERASE INFECTION ASSAY - IC50): 2.82 µM

SMILES | IC90 | IC50 [1] | further results
Cc1nc(NCCCn2ccnc2)c2c(-c3cccs3)csc2n1 | > 10 µM |  | IC50 (PBLUC_HILL_SLOPE 2.38, PBLUC_R_SQUARED 0.267, read-out: LUCIFERASE INFECTION ASSAY - IC50): 6.39 µM
COc1ccc(OC)c(CCNc2nc3cnc(-c4ccc(OC)nc4)cc3n2C)c1 | 2.85 µM |  | IC50 (HEPG2TOX_HILL_SLOPE 1.95, HEPG2TOX_R_SQUARED 0.873, PBLUC_HILL_SLOPE 2.34, PBLUC_R_SQUARED 0.799, read-out: LUCIFERASE INFECTION ASSAY - IC50): 1.11 µM
COc1ccc(-c2cnc3cnc(-c4ccc(OC(F)(F)F)cc4)cn23)cn1 | > 8.54 µM |  | IC50 (PBLUC_HILL_SLOPE 11.4, PBLUC_R_SQUARED 0.148, read-out: LUCIFERASE INFECTION ASSAY - IC50): > 8.54 µM
N#C/C(=C\c1ccccc1Cl)c1nc2ccccc2[nH]1 | > 11.8 µM | > 11.8 µM | 
Cc1ccc(Nc2ccc(S(=O)(=O)NC3=NCCCCC3)cc2[N+](=O)[O-])cc1 | > 10 µM |  | IC50 (HEPG2TOX_HILL_SLOPE 0.294, HEPG2TOX_R_SQUARED 0.717, PBLUC_HILL_SLOPE 0.103, PBLUC_R_SQUARED 0.0204, read-out: LUCIFERASE INFECTION ASSAY - IC50): > 10 µM
Cc1ccsc1CN(C)Cc1nnc(C(=O)Nc2ccc(Cl)cc2)s1 | > 10 µM | > 10 µM | 
O=c1cc(CNC(CCCc2ccccc2)c2ccccc2)nc2ccc(Cl)cn12 (stereo unspecified) | > 10 µM | > 10 µM | 
CCOc1ccc(C(C)NC(=O)C(=O)c2c(C)nn(-c3ccccc3)c2C)cc1 (stereo unspecified) | 9.94 µM |  | IC50 (HEPG2TOX_HILL_SLOPE 9.83, HEPG2TOX_R_SQUARED 0.28, PBLUC_HILL_SLOPE 22.8, PBLUC_R_SQUARED 0.679, read-out: LUCIFERASE INFECTION ASSAY - IC50): 9.03 µM
CCCn1c(=O)n(CC(=O)Nc2ccc(C)c(C)c2)c(=O)c2c1nc(C(F)(F)F)n2CCOC | > 10 µM |  | IC50 (PBLUC_HILL_SLOPE 0.949, PBLUC_R_SQUARED 0.63, read-out: LUCIFERASE INFECTION ASSAY - IC50): 1.57 µM
CC(C)CC(N)c1csc(NC(=O)c2ccc(F)c(Cl)c2)n1 (stereo unspecified) | > 9.65 µM | 8.74 µM | 
COC(=O)C1=C(Nc2ccc(OS(=O)(=O)c3ccc(F)cc3F)cc2)CSC1 | > 7.72 µM | > 7.72 µM | 
CC(C)c1ccc(NC(=O)Nc2csc(Cc3c(Cl)cccc3Cl)n2)cc1 | > 7.85 µM | > 7.85 µM | 
O=C(Nc1ccc(F)cc1F)c1nnsc1S(=O)(=O)c1ccc(Cl)cc1 | > 7.94 µM | > 7.94 µM | 
O=c1nc(Nc2cccc(C(F)(F)F)c2)[nH]nc1Cc1ccccc1 | > 9.53 µM | 1.23 µM | 
Cc1cc(O)cc2c1C(=O)/C(=C/c1ccccc1F)O2 | 11.8 µM |  | IC50 (FFLUC_HILL_SLOPE 1.55, FFLUC_R_SQUARED 0.688, HEPG2TOX_HILL_SLOPE 12, HEPG2TOX_R_SQUARED 0.541, PBLUC_HILL_SLOPE 35.8, PBLUC_R_SQUARED 0.416, read-out: LUCIFERASE INFECTION ASSAY - IC50): 11.1 µM
O=C(O)c1c2c(nc3ccccc13)/C(=C/c1ccccc1Cl)CC2 | > 10 µM |  | IC50 (PBLUC_HILL_SLOPE 0.525, PBLUC_R_SQUARED 0.706, read-out: LUCIFERASE INFECTION ASSAY - IC50): 0.569 µM
CC(=O)Nc1cccc(C(=O)Nn2cnc3ccccc3c2=O)c1 | > 10 µM | > 10 µM | 
Cc1ccc2nc(NC(=O)c3cccc(F)c3)c(C(=O)NCC(C)C)n2c1 | 3.14 µM |  | IC50 (FFLUC_HILL_SLOPE 3.07, FFLUC_R_SQUARED 0.833, HEPG2TOX_HILL_SLOPE 1.43, HEPG2TOX_R_SQUARED 0.94, PBLUC_HILL_SLOPE 3.56, PBLUC_R_SQUARED 0.485, read-out: LUCIFERASE INFECTION ASSAY - IC50): 1.69 µM
O=C1C(Cl)=C(Nc2ccccc2)C(=O)c2ccccc21 | > 11.6 µM |  | IC50 (HEPG2TOX_HILL_SLOPE 3.85, HEPG2TOX_R_SQUARED 0.988, PBLUC_HILL_SLOPE 1.86, PBLUC_R_SQUARED 0.682, read-out: LUCIFERASE INFECTION ASSAY - IC50): 3.78 µM
CCOc1cc(/C=C2\COc3ccccc3C2=O)ccc1OCC(=O)N(C)C | > 10 µM | > 10 µM | 
Cc1[nH]nc2ccnc(-c3cccc(Cl)c3)c12 | > 10 µM |  | IC50 (HEPG2TOX_HILL_SLOPE 7.21, HEPG2TOX_R_SQUARED 0.311, read-out: LUCIFERASE INFECTION ASSAY - IC50): > 10 µM
